Source: ChEMBL document CHEMBL3885861, “Open TG-GATES”

Species on record: Rattus norvegicus
Test: Open TG-GATES - Regimen: Daily Repeat
Format: toxicity, organism-based, Sprague-Dawley
Parameters: regimen Daily Repeat, gender Male, age 6 weeks
Conditions: in vivo, po, 5 mg/kg, […], route gavage, dose level Low; for LIVER: tissue Liver; for A/G / ALP / ALT / AST / BUN / CRE / Ca / Cl / DBIL / GLC / IP / K / LDH / Na / PL / RALB / TBIL / TC / TG / TP / gamma-GTP: tissue Plasma

Work on `C=C(C)[C@H]1Cc2c(ccc3c2O[C@@H]2COc4cc(OC)c(OC)cc4[C@@H]2C3=O)O1` [ROTENONE] yielded a Fbg (tissue Blood, time 28 day) of 204.2 mg/dL, a Hb (tissue Blood, time 28 day) of 14.7 g/dL and a Ht (tissue Blood, time 28 day) of 44.3%. For the same compound, the Lym (tissue Blood, time 28 day) was 74.6%, the MCH (tissue Blood, time 28 day) was 19.3 pg and the MCHC (tissue Blood, time 28 day) was 33.2%. For the same compound, the MCV (tissue Blood, time 28 day) was 58.2 fL, the Mono (tissue Blood, time 28 day) was 5% and the Neu (tissue Blood, time 28 day) was 19.6%. It also gave a PT (tissue Blood, time 28 day) of 12.6 s, a Plat (tissue Blood, time 28 day) of 117.6 x10_4/uL and an RBC (tissue Blood, time 28 day) of 761.4 x10_4/ul. It also gave a Ret (tissue Blood, time 28 day) of 2.1%, a WBC (tissue Blood, time 28 day) of 107.4 x10_2/uL and an LIVER (time 7 day) of 13.1 g. The LIVER (time 14 day) was 15.3 g, the LIVER (time 28 day) was 16.3 g and the A/G (time 7 day) was 2.1. It also gave an ALP (time 7 day) of 1367.8 IU/L, an ALT (time 7 day) of 39.6 IU/L and an AST (time 7 day) of 65 IU/L. For the same compound, the BUN (time 7 day) was 18.2 mg/dL, the CRE (time 7 day) was 0.4 mg/dL and the Ca (time 7 day) was 11.7 mg/dL. For the same compound, the Cl (time 7 day) was 103.2 meq/L, the DBIL (time 7 day) was 0.018 mg/dL and the GLC (time 7 day) was 202.2 mg/dL. The IP (time 7 day) was 7.4 mg/dL, the K (time 7 day) was 4.4 meq/L and the LDH (time 7 day) was 110.6 IU/L. For the same compound, the Na (time 7 day) was 140 meq/L, the PL (time 7 day) was 150.8 mg/dL and the RALB (time 7 day) was 3.8 g/dL. The TBIL (time 7 day) was 0.04 mg/dL, the TC (time 7 day) was 79.4 mg/dL and the TG (time 7 day) was 106.6 mg/dL. It also gave a TP (time 7 day) of 5.6 g/dL, a gamma-GTP (time 7 day) of 0.6 IU/L and an A/G (time 14 day) of 2.1. It also gave an ALP (time 14 day) of 1397.6 IU/L, an ALT (time 14 day) of 36.6 IU/L and an AST (time 14 day) of 68 IU/L. The BUN (time 14 day) was 19.4 mg/dL, the CRE (time 14 day) was 0.4 mg/dL and the Ca (time 14 day) was 11.8 mg/dL. The Cl (time 14 day) was 105 meq/L, the DBIL (time 14 day) was 0.012 mg/dL and the GLC (time 14 day) was 188.6 mg/dL. It also gave an IP (time 14 day) of 6.9 mg/dL, a K (time 14 day) of 4.6 meq/L and an LDH (time 14 day) of 142.4 IU/L. For the same compound, the Na (time 14 day) was 139.2 meq/L, the PL (time 14 day) was 164.2 mg/dL and the RALB (time 14 day) was 3.9 g/dL. It also gave a TBIL (time 14 day) of 0.03 mg/dL, a TC (time 14 day) of 85.4 mg/dL and a TG (time 14 day) of 152.4 mg/dL. The TP (time 14 day) was 5.8 g/dL, the gamma-GTP (time 14 day) was 1 IU/L and the A/G (time 28 day) was 1.8. For the same compound, the ALP (time 28 day) was 1025.4 IU/L, the ALT (time 28 day) was 33 IU/L and the AST (time 28 day) was 64.2 IU/L. The BUN (time 28 day) was 18 mg/dL, the CRE (time 28 day) was 0.4 mg/dL and the Ca (time 28 day) was 10.7 mg/dL. For the same compound, the Cl (time 28 day) was 105.8 meq/L, the DBIL (time 28 day) was 0.01 mg/dL and the GLC (time 28 day) was 175.2 mg/dL. For the same compound, the IP (time 28 day) was 6.2 mg/dL, the K (time 28 day) was 4.5 meq/L and the LDH (time 28 day) was 101.8 IU/L. The Na (time 28 day) was 141.2 meq/L, the PL (time 28 day) was 134.8 mg/dL and the RALB (time 28 day) was 3.8 g/dL. The TBIL (time 28 day) was 0.032 mg/dL, the TC (time 28 day) was 65.6 mg/dL and the TG (time 28 day) was 143 mg/dL. The TP (time 28 day) was 6 g/dL and the gamma-GTP (time 28 day) was 1 IU/L.
